US12703718B2, “Compositions and compounds for co-delivery of uridine and ketoleucine” (PHARMA CINQ, LLC, priority 2021, dated 2026)
Read-outs that look alike come from different tables or passages of the source.

What was measured:
[1] = system: Female CD-1 mice treated with 3-nitropropionic acid (3-NP); test: Protective effects in 3-NP mouse model of mitochondrial dysfunction (survival, weight loss); type: in vivo; settings: for Survival at d 8: 3-NP 65 mg/Kg ip daily, survivors/10 mice
Experimental: A combination of uridine triacetate and ketoleucine was assessed in a model of progressive and lethal impairment of mitochondrial oxidative phosphorylation. 3-nitropropionic acid (3-NP), an irreversible inhibitor of Complex II of the mitochondrial electron transport chain. Daily administration of 3-NP results in progressive loss of mitochondrial reserve energy capacity, until the threshold for baseline energy requirements for survival is breached, resulting in mortality from both heart failure and central nervous system dysfunction.
In this study, uridine triacetate was administered as either by gavage as an oral bolus, or by incorporation into rodent chow at a concentration of 4% w/w. Similarly, ketoleucine (in the form of its sodium salt; NaKL) was administered in different groups by gavage or by dissolving it in drinking water. Sodium chloride (NaCl) was used as a control substance in some groups to account for the sodium load from the ketoleucine salt. • Chemical(s): Hydroxypropyl methyl cellulose (HPMC), cat #H3785, Lot #SLBS5701, CAS 9004-65-3, SIGMA-Aldrich. Uridine Triacetate for gavage (UTA), item, D000156, Lot #Q000001095, Almac Sciences, Uridine Triacetate in the diet (UTA), item & Lot #, D000302, 2148-070, Project #1314A0071A, recovery of material from R-104 Lot Q000003578, Almac Sciences, Sodium Chloride (NaCl), VWR, Cat #BDH9286-500G, Lot #1976C500, CAS 7647-14-5, 4-methyl-2-oxovaleric acid sodium salt (ketoLeucine: NaKL), cat #M326425, Lot #1-AWT-36-1, CAS4502-00-5, Toronto Research Chemicals, and 3-nitropropionic acid (3NP), cat #N5636, Lot #11101616, CAS 504-88-1, SIGMA-Aldrich. • Vehicle(s): UTA, NaKL, or NaCl in suspensions was prepared in 0.75% HPMC. NaCL or NaKL in the drinking water were prepared by dissolving in water. 3-NP solutions were prepared in water. • Dosing Formulation(s): Preparation: UTA was suspended in 0.75% HPMC at 50 mg/ml. NaKL will be suspended in 0.75% HPMC at 100 mg/ml, or included in the drinking water at 15.8 mg/ml. […]

[2] = oral; cited from earlier work
[3] = oral, humans; cited from earlier work
[4] = oral, mice; cited from earlier work

Row | SMILES | Survival at d 8 ([1]; Group 1: 4% UTA diet, NaCl in drinking water, no gavage) | Survival at d 8 ([1]; Group 3: normal chow, regular water, UTA 1000 mg/Kg and NaCl by gavage 7 AM and 4 PM) | Protection against weight loss, comparison between groups ([1]; bolus (gavage) uridine triacetate with or without NaKL (Groups 3-5) versus 4% (w/w) uridine triacetate in chow (Groups 1 and 2)) | bioavailability [2] | bioavailability [3] | bioavailability [4]
1 | CC(=O)OC[C@H]1O[C@@H](n2ccc(=O)[nH]c2=O)[C@H](OC(C)=O)[C@@H]1OC(C)=O [UTA, 2′,3′,5,-tri-O-acetyluridine] | 0/10 | 1/10 | better protection against weight loss | approximately 50% |  | 
2 | O=c1ccn([C@@H]2O[C@H](CO)[C@@H](O)[C@H]2O)c(=O)[nH]1 [uridine] |  |  |  |  | approximately 7% | approximately 7%
